What was measured:
[1] = test system: TT-specific short-term T cell lines from PBMC; experiment: Cytokine production by TT-specific short-term T cell lines expanded with or without RLX; format: cell-based, human
Method: TT-specific short-term T cell lines were generated from PBMC of TT-vaccinated normal donors according to a technique described in M. P. Piccinni et al <<Progesterone favors the development of human T helper cells producing Th2-type cytokines and promotes both IL-4 production and membrane CD30 expression in established TH1 cell clones>>, in J. Immmunol., 1995, 155: 128-133.
Briefly, 10^5 PBMC in 2 ml RPMI 1640 medium supplemented with 2 mM L-glutamine, 2×10^−5M 2-ME and 5% human serum (complete medium) were stimulated in 24-well flat-bottom plates for 5 days with the antigen (0.2?g/ml TT) in the absence or in the presence of RLX at concentrations of 10^−10, 10^−9, 10^−8, 10^−7 and 10^−6 M. Human IL-2 (20 U/ml) was then added and cultures continued for another 9 days. Viable T blasts were resuspended in complete medium and tested for their antigen specificity. To this end, 2×10^4 T blasts were seeded in microplates and cocultured for 48 h with irradiated (6000 rad) autologous PBMC (5×10^4) in the presence of medium alone or 0.1 ? g/ml TT, respectively. After a 16-h pulse with 0.5 ?Ci [^3H]thimidine, cultures where harvested and radioactivity measured by liquid scintillation. The phenotype distribution of TT-specific T cells was assessed by flow cytometer analysis.
(§1) To quantitate cytokine production in supernatants of TT-specific shortterm T cell lines and established T cell clones, […] were cultured in the presence of 20 ng/ml PMA plus 100 ng/ml anti-CD3 mAb. After 36 h culture, cell-free supernatants were collected, filtered, and stored in aliquots at −70° C. until used. Determination of IFN-? was performed by a commercial ELISA (Biosource International, Camarill, Calif.). […] Values of the cytokine content 5 SD over those of control supernatants obtained by stimulation of irradiated feeder cells alone were regarded as positive.
On the other hand, no effect of RLX dilution can be observed on the production of IL-4.

CD4+ T cell clone = experiment: Competitive PCR for IFN-? mRNA in a CD4+ T cell clone; format: cell-based, human
Method: Competitive PCRfor IFN-?was performed using a competitorcontrol fragment (PCR MIMIC; Clontech Laboratories Inc. Palo Alto, Calif., USA) according to the manufacturer's instructions. PCR MIMIC was used together with sample cDNA in the reaction mixture; sample and control cDNA were amplified with the same primers, so they competed for the same primers in the same reaction, but were distinguished on gel electrophoresis by differences in length. By knowing the amount of PCR MIMIC added to the reaction, the amount of target cDNA and therefore the initial mRNA levels could be determined. Each sample (and competitor fragment) was subjected to 25 cycles of amplification as described above.
The intensity of the bands for ?-actin obtained by RT-PCR was measured in all the samples to confirm that the same quantities of total RNA were reverse transcribed. In addition, the intensity of the bands for IFN-? obtained by PCR amplification (MIMIC and samples) and by Southern blot was also measured. A CCD video camera C3077/01 (Hamamatsu Photonics, Tokyo, Japan) interfaced with an Apple Macintosh personal computer was used. Acquisition of images was obtained with Imagequest IQBase software (Hamamatsu Photonics). Image processing and analysis was performed with the free-share software IMAGE (National Institutes of Health, Research Services, Branch NIMH, version 1.28).

[2] = test system: established CD4+ T cell clones (Th0-like); experiment: Cytokine production (ELISA) by established CD4+ T cell clones stimulated with insolubilized anti-CD3 mAb; format: cell-based, human; conditions: for levels of IFN-?: 12 CD4+ clones, insolubilized anti-CD3 mAb, p<0.03 vs absence of RLX (3.6±0.98 ng/ml)
Method: To generate T cell clones, PBMC from normal subjects were seeded under limiting dilution conditions (0.3 cell/well) in six round-bottom microwell plates containing […] (6000 rad) allogeneic PBMC (as feeder cells) and PHA (1% vol/vol) in a final volume of 0.2 ml complete medium supplemented with 20 U/ml IL-2 and 10% FCS. Growing microcultures where then supplemented, at weekly intervals, with 20 U/ml IL-2 and 10^5 irradiated feeder cells. The phenotype distribution of T cell clones was assessed by flow cytometer-analysis.
as §1
The two curves shown in FIG. 2 relate to two CD4^+ T cell clones stimulated with immobilised anti-CD3 antibody in the presence or in the absence of different concentrations of RLX for 36 h. […] Total RNA was extracted as described herein after. 1?g of RNA was reversed transcribed and cDNA were amplified and then subjected to PCR amplification with primers for IFN-? and IL4 as discussed more in detail below.
To provide unequivocal evidence of the direct effect of RLX on T cells, the activity of RLX on the IFN-? mRNA expression and IFN-? production by established T cell clones was examined. To this end, 12 CD4^+ T cells clones showing a Th0-like profile (production of both IFN-? and IL-4) were cultured in the absence of any other cell type and stimulated with insolubilized anti-CD3 mAb in the presence or absence of RLX. […] The levels of IL-4 produced by the same CD4+T cell clones were not altered by the presence of RLX.

sensitized guinea pigs = conditions: RLX treatment; cited from earlier work
PSS patients = conditions: cited from earlier work
[3] = test system: adherent cell-enriched fractions of PBMC (monocytes/APC); experiment: IL-12 and IFN-? release by adherent cell-enriched fractions of PBMC stimulated with TT; format: cell-based, human; conditions: stimulated 5 days with TT, absence vs presence of RLX
[4] = test system: established CD4+ T cell clones; experiment: RT-PCR of IFN-? and IL-4 mRNA in established CD4+ T cell clones; format: cell-based, human; conditions: two clones, 10^−8 M RLX vs absence
Method: To induce cytokine mRNA expression in established T cell clones for RNA extraction 2×10^5 T blasts from each clone were cultured with insolubilized anti-CD3 (1?g/ml). After 12 h, pellets were washed four times with PBS at pH 7.2 and kept frozen until used. Total RNA was extracted using Ultraspec RNA Isolation kit (Biotex Laboratories, Inc. Houston, Tex., USA). […] Following extraction, 1 ?g of RNA was reverse transcribed by M-MLV reverse transcriptase (Gibco-BRL, Gaithersburg, Md., USA). All cDNA were amplified with primers for ?-actin to test the quality of cDNA and then subjected to PCR amplification with primers for IFN-? and IL-4. In each PCR reaction a positive control and a negative control (without cDNA as template to exclude contamination) were included. PCR analysis was carried out in a DNA thermal cycler (Idaho Technology, Idaho Falls, ID, USA). […] The size of the amplified products was evaluated by comparison with molecular weight markers run in parallel lanes.
The intensity of the bands for ?-actin obtained by RT-PCR was measured in all the samples to confirm that the same quantities of total RNA were reverse transcribed. In addition, the intensity of the bands for IFN-? obtained by PCR amplification (MIMIC and samples) and by Southern blot was also measured. […]

[5] = FIG. 1, mean values, cultures with antigen plus 200 U/ml IL-12 as printed
[6] = expanded in presence vs absence of RLX

With relaxin [RLX] the “production of IFN-? in TT-specific T cell lines as a function of RLX concentration (FIG. 1)” value [1, 5] was “increases with the concentration of RLX”, the “production of IL-4 in TT-specific T cell lines as a function of RLX concentration (FIG. 1)” value [1, 5] was “no effect” and the “production of IFN-? in TT-specific T cells” value ([1]; expanded in presence of RLX at 10^−9, 10-8 and 10^−7 M vs absence of RLX) was “significantly higher”. For the same substance, the “production of IL-4 in TT-specific T cells” value [1, 6] was “no significant differences”, the “production of IL-5 in TT-specific T cells” value [1, 6] was “no significant differences” and the “production of IL-6 in TT-specific T cells” value [1, 6] was “no significant differences”. For the same substance, the “increase of IFN-? mRNA (competitive PCR, image analysis)” value (CD4+ T cell clone; T cell clone no. 2, 10^−8 M RLX vs absence) was “approximately tenfold increase”, the “IFN-? mRNA amount (competitive PCR)” value (CD4+ T cell clone; T cell clone no. 2, presence of 10^−8 M RLX, absence of RLX 4.1×10^−3) was 5×10^−2 attomol/? I and the “levels of IFN-?” value ([2]; 10^−7 M RLX) was 5.87±1.63 ng/m. For the same substance, the “levels of IFN-?” value ([2]; 10^−8 M RLX) was 8.20 ± 2.27 ng/mL, the “levels of IL-4” value ([2]; same 12 CD4+ T cell clones, presence vs absence of RLX) was “not altered” and the allergic asthma-like reaction (sensitized guinea pigs) was “reduced”. For the same substance, the bronchial hyperresponsiveness (sensitized guinea pigs) was “reduced”, the total skin score (PSS patients; PSS patients, control phase trial) was “improvement” and the tolerability (PSS patients; RLX treatment compared with administration of IFN-?) was “better tolerated”. For the same substance, the “concentration of IFN-? in supernatants” value [3] was “no significant differences”, the “concentration of IL-12 in supernatants” value [3] was “no significant differences” and the “IFN-? mRNA expression (RT-PCR)” value [4] was “higher levels”. For the same substance, the “IL-4 mRNA levels (RT-PCR)” value [4] was “the same”.

— patent publication US20050180968A1, “Use of relaxin for stimulating the development of activated human T cells into TH1-like effectors” (priority 2000, published 2005)
